According to paper PMC2358886, “Evolution of pharmacologic specificity in the pregnane X receptor” (BMC Evolutionary Biology, 2008):
Read-outs that look alike come from different tables or passages of the source.

Tests used:
zebrafish PXR = target: T1, zebrafish PXR (Danio rerio, UniProt A5WYG8)
T1 sequence (A5WYG8 144-430): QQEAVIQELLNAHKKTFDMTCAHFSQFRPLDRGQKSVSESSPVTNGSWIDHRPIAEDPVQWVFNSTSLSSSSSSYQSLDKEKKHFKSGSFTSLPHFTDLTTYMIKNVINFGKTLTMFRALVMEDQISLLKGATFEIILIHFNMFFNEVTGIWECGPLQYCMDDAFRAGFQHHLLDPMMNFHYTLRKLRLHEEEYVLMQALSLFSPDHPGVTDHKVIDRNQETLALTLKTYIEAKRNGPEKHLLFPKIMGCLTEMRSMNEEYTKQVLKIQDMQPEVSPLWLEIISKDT

human PXR = target: T2, human PXR (Homo sapiens, UniProt O75469); assay: PXR activation luciferase reporter assay, human PXR in HepG2-NTCP cells; settings: for hPXR Efficacy: relative to 10 μM rifampicin, assigned an efficacy of 1.0
T2 sequence (O75469 1-434): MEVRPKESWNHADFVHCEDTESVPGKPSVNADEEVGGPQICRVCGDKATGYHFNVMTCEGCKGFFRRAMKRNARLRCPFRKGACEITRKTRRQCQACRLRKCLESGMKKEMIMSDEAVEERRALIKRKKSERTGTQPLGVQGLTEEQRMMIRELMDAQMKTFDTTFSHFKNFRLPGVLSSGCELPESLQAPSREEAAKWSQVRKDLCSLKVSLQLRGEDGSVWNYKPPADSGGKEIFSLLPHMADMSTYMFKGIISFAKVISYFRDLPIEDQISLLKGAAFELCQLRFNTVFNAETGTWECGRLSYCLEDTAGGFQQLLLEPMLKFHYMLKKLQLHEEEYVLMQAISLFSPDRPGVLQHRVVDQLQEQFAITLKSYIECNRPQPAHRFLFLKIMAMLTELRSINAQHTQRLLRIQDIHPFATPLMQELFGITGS

[1] = Human PXR EC50 (concentration class, Figure 2A), class read from box colour against the key of Figure 2
[2] = hPXR Activity, -log(EC50), EC50 in molar units, activation of human PXR
[3] = -log(EC50), EC50 in molar units, activation of zebrafish PXR
[4] = -log(EC50), EC50 in molar units, activation of human PXR

Compound	Toxicity (HepG2 cells; human, 24 hr) [µM]	EC50 (human PXR; [2]) [µM]	zfPXR Activity (zebrafish PXR; [3])	Toxicity (HepG2 cells)	further results
C[C@]12CCC(=O)C=C1CC[C@@H]1[C@@H]2C(=O)C[C@@]2(C)[C@H]1CC[C@]2(O)C(=O)CO [PR6, 4-Pregnen-17,21-diol-3,11,20-trione]	200	69.2			Zebrafish PXR EC50 (concentration class, Figure 2B) (zebrafish PXR): Inactive; zfPXR Activity (zebrafish PXR): None; EC50 (human PXR; [1]): 51 to 200 µM
Cc1c(C)c2c(c(C)c1O)CC[C@@](C)(CCC[C@H](C)CCC[C@H](C)CCCC(C)C)O2 [MI37, α-Tocopherol]	100	~50.1			zfPXR Activity (zebrafish PXR): None
C=C1/C(=C\C=C2/CCC[C@]3(C)[C@@H]([C@H](C)CCCC(C)C)CC[C@@H]23)C[C@@H](O)C[C@@H]1O [MI43, 1α-Hydroxyvitamin D3]	50		None		
COC(=O)[C@H]1[C@H]2C[C@@H]3c4[nH]c5cc(OC)ccc5c4CCN3C[C@H]2C[C@@H](OC(=O)c2cc(OC)c(OC)c(OC)c2)[C@@H]1OC [MI30, Reserpine]	50				
C[C@H]([C@H](O)CCC(C)(C)O)[C@H]1CC[C@@]2(O)C3=CC(=O)[C@@H]4C[C@@H](O)[C@@H](O)C[C@]4(C)[C@H]3CC[C@]12C [MI13, Ecdysone]			None	None	hPXR Activity (human PXR; [4]): None
CC(=O)[C@H]1CC[C@H]2[C@@H]3CCC4=CC(=O)CC[C@]4(C)[C@H]3CC[C@]12C [PR7, 4-Pregnen-3,20-dione]	200	14.8	None		EC50 (human PXR; [1]): 11 to 50 µM
CC(=O)[C@H]1CC[C@H]2[C@@H]3CC=C4C[C@@H](O)CC[C@]4(C)[C@H]3CC[C@]12C [PR12, 5-Pregnen-3β-diol-20-one]			6.32	None	zfPXR Efficacy (zebrafish PXR; relative to 20 μM 5α-androstan-3α-ol, assigned an efficacy of 1.0): 2.05; hPXR Activity (human PXR; [4]): 5.64; hPXR Efficacy (human PXR): 1.26
COC(=O)CC[C@@H](C)[C@H]1CC[C@H]2[C@@H]3CC[C@@H]4C[C@H](OC(C)=O)CC[C@]4(C)[C@H]3CC[C@]12C [BI50, 5β-Cholanic acid-3α-acetate methyl ester]			None	None	hPXR Activity (human PXR; [4]): 5.96
CC(=O)[C@@]1(O)CC[C@H]2[C@@H]3CCC4=CC(=O)CC[C@]4(C)[C@H]3CC[C@@]21C [PR8, 4-Pregnen-17-ol-3,20-dione]					Toxicity (HepG2 cells; human): None
Nc1nc2ncc(CNc3ccc(C(=O)N[C@@H](CCC(=O)O)C(=O)O)cc3)nc2c(=O)[nH]1 [MI16, Folic acid]				None	zfPXR Activity (zebrafish PXR): None
C[C@]12CC[C@@H](O[C@@H]3O[C@H](C(=O)O)[C@@H](O)[C@H](O)[C@H]3O)C[C@H]1CC[C@@H]1[C@@H]2CC[C@]2(C)C(=O)CC[C@@H]12 [AN18, 5β-Androstan-3α-glucosiduronate-17-one]			None	None	hPXR Activity (human PXR; [4]): None
C[C@]12CCC(=O)C=C1CC[C@@H]1[C@@H]2[C@@H](O)C[C@]2(C=O)[C@@H](C(=O)CO)CC[C@@H]12 [PR5, 4-Pregnen-11β,21-diol-3,18,20-trione]		55	None	None	EC50 (human PXR; [1]): 51 to 200 µM
CCOC(=O)c1ccccc1N [MI14, Ethyl-2-aminobenzoate]			None		hPXR Activity (human PXR; [4]): None
CO[C@H]1/C=C/O[C@@]2(C)Oc3c(C)c(O)c4c(O)c(c(/C=N/N5CCN(C)CC5)c(O)c4c3C2=O)NC(=O)/C(C)=C\C=C\[C@H](C)[C@H](O)[C@@H](C)[C@@H](O)[C@@H](C)[C@H](OC(C)=O)[C@@H]1C [MI32, Rifampicin]	200		None		
CC(=O)O[C@@H]1CC[C@@]2(C)[C@H](CC[C@@H]3[C@@H]2CC[C@]2(C)[C@@H]([C@H](C)CCC(=O)O)CC[C@@H]32)C1 [BI49, 5β-Cholanic acid-3α-acetate]			5.89	None	hPXR Activity (human PXR; [4]): 5.92; hPXR Efficacy (human PXR): 0.54
C[C@]12CC[C@@H]3c4ccc(O)cc4CC[C@H]3[C@@H]1CCC2=O [ES2, 1,3,5(10)-Estratrien-3-ol-17-one]	200				
CCOP(=O)(OCC)C(=Cc1cc(C(C)(C)C)c(O)c(C(C)(C)C)c1)P(=O)(OCC)OCC [MI33, SR12813]			None	10 µM	
CC(=O)Nc1ccc(O)cc1 [MI1, Acetaminophen]				None	
C[C@H](CCC(=O)O)[C@H]1CC[C@H]2[C@@H]3CC[C@@H]4C[C@H](OS(=O)(=O)O)CC[C@]4(C)[C@H]3CC[C@]12C [BI41, 5β-Cholanic acid-3α-sulfate]			4.61	None	hPXR Activity (human PXR; [4]): 3.93
C[C@]12CCC(=O)C=C1CC[C@@H]1[C@@H]2CC[C@@]2(C)[C@H]1CC[C@]2(O)C(=O)CO [PR4, 4-Pregnen-17,21-diol-3,20-dione]		22.9	None	None	EC50 (human PXR; [1]): 11 to 50 µM
C=C1/C(=C\C=C2/CCC[C@]3(C)[C@@H]([C@H](C)CCCC(C)(C)O)CC[C@@H]23)C[C@@H](O)C[C@@H]1O [MI41, 1α,25-Dihydroxyvitamin D3]	50				
C[C@]12CC[C@@H]3c4ccc(OC5O[C@H](C(=O)O)[C@@H](O)[C@H](O)[C@H]5O)cc4CC[C@H]3[C@@H]1CC[C@@H]2O (stereo partly drawn) [ES9, 1,3,5(10)-Estratrien-17β-ol-3-glucosiduronate]			None	None	hPXR Activity (human PXR; [4]): None
CC1=C(C/C=C(\C)CCC[C@H](C)CCC[C@H](C)CCCC(C)C)C(=O)c2ccccc2C1=O [MI44, Vitamin K1]	100	10.2	None		
C/C=C1\C(=O)C[C@H]2[C@@H]3CCC4=CC(=O)CC[C@]4(C)[C@H]3CC[C@]12C [MI17, Guggulsterone]				None	zfPXR Activity (zebrafish PXR): None
CC[C@H](C)C(=O)O[C@H]1CCC=C2C=C[C@H](C)[C@H](CC[C@@H]3C[C@@H](O)CC(=O)O3)[C@H]21 [MI20, Mevastatin]	15	5.89	None		
CC(=O)O[C@H]1C(=O)[C@@]2(C)[C@H]([C@H](OC(=O)c3ccccc3)[C@]3(O)C[C@H](OC(=O)[C@H](O)[C@@H](NC(=O)c4ccccc4)c4ccccc4)C(C)=C1C3(C)C)[C@]1(OC(C)=O)CO[C@@H]1C[C@@H]2O [MI24, Paclitaxel]	100	12			zfPXR Activity (zebrafish PXR): None
C[C@]12C[C@H](O)[C@H]3[C@@H](CCC4=CC(=O)CC[C@@]43C)[C@@H]1CC[C@@H]2C(=O)CO [PR3, 4-Pregnen-11β,21-diol-3,20-dione]		10		None	Zebrafish PXR EC50 (concentration class, Figure 2B) (zebrafish PXR): Inactive; zfPXR Activity (zebrafish PXR): None; EC50 (human PXR; [1]): < 10 µM
C[C@@H]1C[C@H]2[C@@H]3CCC4=CC(=O)C=C[C@]4(C)[C@@]3(F)[C@@H](O)C[C@]2(C)[C@@]1(O)C(=O)CO [PR29, 1,4-Pregnadien-9α-fluoro-16α-methyl-11β,17,21-triol-3,20-dione]				None	zfPXR Activity (zebrafish PXR): None; EC50 (human PXR; hPXR Activity): 40.7 µM
CC1=C(/C=C/C(C)=C/C=C/C(C)=C/C=C/C=C(C)/C=C/C=C(C)/C=C/C2=C(C)CCCC2(C)C)C(C)(C)CCC1 [MI9, β-Carotene]	100	3.47	None		
